# What was measured:
# ETA receptors = assay: ETA receptor expression in tissues of hemorrhaged rats (western blot); assay type: in vivo, rat; details: for change in ETA receptor expression, abdominal aorta: compared to hemorrhaged rats with no treatment; for change in ETA receptor expression, renal medulla: compared to hemorrhagic shock
# Protocol: Induction of Hemorrhagic Shock. Hemorrhage was induced by withdrawing blood from the femoral artery at a rate of approximately 0.5 to 1 mL/min until a MAP of 35 mmHg was reached. This MAP was maintained for 30 min by further withdrawal of blood, if necessary. The hemorrhagic shock model used in the present study is a well-established rodent model of manageable pressure hemorrhage (Buehler et al. 2000; Gulati et al. 1997a; Gulati and Sen 1998). The volume of blood loss was about approximately 8.0 ml in each rat and was similar in various groups, amounting to approximately 40% of the total blood. Measured hematocrit levels were similar in various groups. The duration of blood withdrawal was approximately 15 minutes.
# Experimental design. To determine the resuscitative effect of centhaquin on cardiovascular system and plasma cytokines in hemorrhagic shock, rats were randomly divided into five groups, Group 1: Sham control (Non-hemorrhaged) (n=5), Group 2: Hemorrhage with no resuscitation (n=5); Group 3: Hemorrhage followed by resuscitation with 3% hypertonic saline (vehicle) (n=5); Group 4: Hemorrhage followed by resuscitation with vehicle plus centhaquin (0.017 mg/kg) (n=5); and Group 5: Hemorrhage followed by resuscitation with vehicle plus centhaquin (0.05 mg/kg) (n=5). Resuscitation was started 30 min after induction of hemorrhagic shock as an intravenous infusion (1 mL/min) through femoral vein using an infusion pump (Harvard Apparatus Infusion/Withdrawal Pump, Millis, MA). The blood samples, for biochemical estimations, were collected at 30 minutes of resuscitation and cardiovascular parameters were monitored till 60 minutes after which the animal was sacrificed. The volume of resuscitative solution was kept equal to the volume of blood loss.
# Estimation of ETA and ETB receptor expression. Expression of ETA and ETB receptors was determined using the western blotting technique (Briyal et al. 2015; Leonard and Gulati 2013) with some modifications. After completion of cardiovascular experiments animals were sacrificed and the organs (brain, heart, liver, lung, kidney and abdominal aorta) were immediately dissected out, flash frozen on dry ice, and stored at −80° C. for further analysis. The tissue was homogenized with 10×(w/v) RIPA lysis buffer (20 mM Tris-HCl pH 7.5, 120 mM NaCl, 1.0% TritonX-100, 1.0% sodium deoxycholate, 0.1% sodium dodecyl sulfate (SDS), 10% glycerol, 1 mM disodium ethylene diamine tetraacetic acid (EDTA), 1 mM ethylene glycol-bis(β-aminoethyl ether)-N,N,N′,N′-tetraacetic acid tetrasodium salt (EGTA), phosphatase inhibitors and Complete Mini Protease inhibitor cocktail tablet (Roche Diagnostics, Indianapolis, IN). Proteins were isolated in solubilized form and concentrations were measured by Folin-Ciocalteu's phenol reagent (Lowry et al. 1951). Solubilized protein (60 μg) was denatured in Laemmli sample buffer (Bio-Rad Laboratories, Hercules, CA), resolved on 10% sodium dodecyl sulfate-polyacrylamide gel electrophoresis (SDS-PAGE) and then transferred onto the nitrocellulose membrane followed by blocking the membrane with SuperBlock® Blocking Buffer in tris-buffered saline (TBS) (ThermoFisher Scientific, Hanover Park, IL). The membranes were washed three times with 1×TBS-Tween (TBST) and incubated with rabbit polyclonal anti-ETA receptor (ab85163, Abcam, Cambridge, MA, 1:1000) or anti-ETB receptor (ab117529, Abcam, Cambridge, MA, 1:1000) or mouse monoclonal anti-β-actin (a1978, Sigma-Aldrich, St. Louis, MO) antibodies, followed by horseradish peroxidase (HRP)-conjugated secondary antibodies goat anti-rabbit (sc2004, Santa Cruz Biotechnology, Dallas, TX, 1:2000) or goat anti-mouse (ab98693, Abcam, Cambridge, MA, 1:10,000) and visualized by SuperSignal® West Pico Chemiluminescent Substrate (ThermoFisher Scientific, Hanover Park, IL) using the ChemiDoc™ MP Imaging System (Bio-Rad Laboratories, Hercules, CA) and then analyzed using ImageJ (NIH) software.
# [1] = Renal blood flow of hemorrhaged rats subjected to 20 minutes of renal artery occlusion; assay type: in vivo, rat
# Protocol: Effect of centhaquin on renal blood perfusion of hemorrhaged rats. Hemorrhaged rats were resuscitated with vehicle (saline) or centhaquin low dose (0.01 mg/kg) or high dose (0.1 mg/kg). The effect of centhaquin on renal blood perfusion was measured before the induction of shock, 30 minutes after shock (hemorrhage) and 10, 30, 60, 90 and 120 minutes after resuscitation. […] This improved renal medullary blood perfusion is indicative of a use of centhaquin to prevent or treat injury to the kidneys (FIG. 5). […] A low dose of 0.02 mg/kg of centhaquin was also found to be effective in increasing the renal blood flow of hemorrhaged rats subjected to 20 minutes of renal artery occlusion.
# [2] = tested on: isolated, perfused rabbit heart; details: cited from earlier work
structure (smiles),measurement,setting,value
"Cc1cccc(N2CCN(CCc3ccc4ccccc4n3)CC2)c1 [centhaquin, 2-[2-(4-(3-methyphenyl)-1-piperazinyl)]ethyl-quinoline]","change in ETA receptor expression, abdominal aorta",ETA receptors; centhaquin 0.017 mg/kg,−47.6%
same,"change in ETA receptor expression, renal medulla",ETA receptors; centhaquin 0.017 mg/kg,−61.3%
same,"change in ETA receptor expression, abdominal aorta",ETA receptors; centhaquin 0.05 mg/kg,−49.2%
same,"change in ETA receptor expression, renal medulla",ETA receptors; centhaquin 0.05 mg/kg,−70.5%
same,"change in ETA expression, renal medulla (summary)",ETA receptors; dose not given,−61%
same,"ETA receptor expression in brain, heart, liver, lungs and kidney cortex",ETA receptors; hemorrhage and resuscitation,no change
same,"shock-induced increase (140%) in ETA expression, abdominal aorta","ETA receptors; summary, also attenuated by saline",attenuated
same,increasing the renal blood flow,"[1]; high dose 0.2 mg/kg, versus 0.02 mg/kg",did not have the same efficacy
same,increasing the renal blood flow,[1]; low dose 0.02 mg/kg,effective
same,"inotropic effect, ventricular contractions",[2],positive inotropic effect

# — patent US12629406B2, “Alterations in endothelin receptors following hemorrhage and resuscitation by centhaquin” (MIDWESTERN UNIVERSITY, priority 2018, dated 2026)
